Test results taken from patent publication US8492347B2, “Peptide for induction of immune tolerance as treatment for systemic lupus erythematosus” (The Regents of the University of California, priority 2007, dated 2013).
Where no end group is shown, it is not given here. [ ]: non-standard residue; d: D form.

Legend:
Format in all cases: in vivo
BWF1 mice [1] = assay: cytokine and Foxp3 mRNA in mesenteric lymph nodes after peptide feeding; details: mesenteric lymph nodes one week after feeding
Description: Cytokine measurement in the supernatant of cultured spleen cells was done with BD OptEIA™ ELISA kits (BD Biosciences and Bio legends Inc., San Diego, Calif.) for IFNγ, IL-2, TGFβ and IL-10. Intracellular mRNA encoding IFNγ, IL-10, Foxp3 and TGFβ was analyzed by real-time RT PCR. GAPDH was used as a house-keeping gene for normalization.
Real-time PCR was analyzed according to art accepted protocols (see, e.g. Hahn et al., Ann NY Acad Sci 2005; 1051:433-41). Briefly, total RNA was isolated with TRIzol (Invitrogen Life Technologies, Carlsbad, Calif.) as per manufacturer's protocol. Reverse transcription used 50 ng of total RNA. The oligonucleotide sequences used for the primers and TaqMan probes are as follows; IFN-γ forward, 5′ TGA GAC AGA AGT TCT GGG CTTCT 3′ (SEQ ID NO: 9); reverse, 5′ CAAGAT GCA GTG TGT AGC GTTCA 3′ (SEQ ID NO: 10): probe, 6FAM TCC TGCGGCCTAGCTCTGAGA TAMRA (SEQ ID NO: 11). IL-10 forward, 5′ CAGCCGGGAAGACAATAACTG 3′ (SEQ ID NO: 12); reverse, 5′ CCGCAGCTCTAGGAGCATGT 3′ (SEQ ID NO: 13); probe 6FAM ACCCACTTCCCAGTCGGCCAGAG TAMRA. TGFβ forward, 5′ AAACGGAAGCGCATCGAA 3′ (SEQ ID NO: 14); reverse, 5′ […] 3′ (SEQ ID NO: 15), probe 6FAM […] TAMRA (SEQ ID NO: 16). Foxp3 forward, 5′[…] 3′ (SEQ ID NO: 17); reverse, 5′ […] 3′ (SEQ ID NO: 18); probe 6FAM […] TAMRA (SEQ ID NO: 19). The amplification primers were at 900 nM and the probe at 200 nM. A passive reference dye (ROX) provided an internal standard for normalization of FAM fluorescence, correcting for fluctuations due to volume changes. For relative quantitation, a standard curve was constructed for each primer and probe set, using total RNA. RNA was isolated from spleen cells of 10-13 week-old naïve or tolerized mice. Spleen cells from 2 to 3 mice in each group were pooled for each experimental group. For some experiments, CD4^+ and CD8^+ cells were isolated by positive selection using micro beads with Miltenyi AutoMACS as described above. A ribosomal RNA control primer and probe set (Applied Biosystems) were used for normalization purposes. […]

BWF1 mice [2] = assay: anti-DNA antibodies (ELISA) in mice fed peptide; details: 250 ug fed 5 days out of each 30 from age 10 weeks
Description: (§1) Anti-DNA antibodies were measured by ELISA and proteinuria by Azostix (see, e.g. Yang et al., J. I., 2003, 171: 2142-2153).
(§2) We also observed the clinical effects of feeding either D- or L-peptides at the low, medium and high doses of each. Because mRNA analysis of mesenteric lymph nodes provided evidence that high dose D-peptide would induce tolerance, we began new experiments to compare high dose (250 ug) feedings of D-peptide to the same dose of L-peptide. A control group was fed saline on the same schedule as the peptide feedings, which is daily for 5 days out of each 30 days. Each group contains 14 mice; treatment was begun at age 10 weeks. Observed effects on anti-DNA are as follows. […] Note that the saline control group is lower than the positive control anti-DNA, which is serum from BWF1 mice with heavy proteinuria and imminent death. Thus, the saline control has not reached the expected high level at this point but should do so in the next 2 months.

BWF1 mice [3] = assay: proteinuria (Azostix) in mice fed peptide; details: 250 ug fed 5 days out of each 30 from age 10 weeks; for proteinuria vs saline: at 34 weeks
Description: as §1, §2
Observed effects on Proteinuria are as follows.

## FIEWNKLRFRQGLEW ([dF][dI][dE][dW][dN][dK][dL][dR][dF][dR][dQ]G[dL][dE][dW]) [D-pCons]
BWF1 mice [1]; high dose 250 ug fed, listed as D-peptide
  mRNA pattern: increase in Foxp3 and TGFb with decrease in IFNg: All desired features
BWF1 mice [2]; at 24 weeks of age, not statistically significant
  anti-DNA antibody levels vs saline: trends to lower anti-DNA antibody levels
BWF1 mice [2]; at 34 weeks, one-tailed t test, listed as D-peptide
  anti-DNA antibody levels vs saline: borderline (p=0.17 by one-tailed t test)
BWF1 mice [3]; at 24 weeks of age
  mean level of proteinuria (zero to 4+): no differences in mean level of proteinuria
BWF1 mice [3]; listed as D-peptide
  proteinuria vs saline: lower in the D-peptide group (p=0.18)

## FIEWNKLRFRQGLEW [L-pCons]
BWF1 mice [1]; high dose 250 ug fed, listed as L-peptide
  mRNA pattern: increase in Foxp3 and TGFb with decrease in IFNg: all desired features
BWF1 mice [1]; middle dose 100 ug fed, listed as L-peptide
  mRNA pattern: increase in Foxp3 and TGFb with decrease in IFNg: all desired features
BWF1 mice [2]; at 34 weeks, one-tailed t test, listed as L-peptide
  anti-DNA antibody levels vs saline: significantly lower than saline (p=0.03)
BWF1 mice [3]; listed as L-peptide
  proteinuria vs saline: lower in the L-peptide group (p=0.01)
